Legend:
[1] = test system: Salmonella typhimurium (Strain TA 100); assay: Ames Salmonella/microsome mutagenic test with human S9 mix and mutagen 2-AA; assay type: cell-based
Protocol: Mutagenicity is evaluated following the Ames Salmonella mutagenic assay, a bacterial reverse mutation test using a histidine-dependent […] mutant of Salmonella typhimurium lacking both normal DNA repair mechanisms and the ability to grow on a histidine-free medium. See, D. R. Maron and B. Ames. Mutation Research. 1980. 113:173-215, incorporated herein by reference in its entirety. As one skilled in the art understands, the test assumes that DNA-altering chemicals cause mutations and that mutagenicity is closely associated with carcinogenicity. Induced mutations are estimated by the number of bacteria capable of growing on a histidine-free medium. […]
Colonies chosen to generate overnight cultures were grown in 5 ml nutrient broth #2 (Cat No. CM 0067; Oxid Products; Basingstone, Hampshire, UK) at […] to a density of 1-2×10^9 per ml (absorbance of 0.96±0.2 at 600 nm). […]
Test compounds with the S9 mix were incubated for 30 minutes at 37° C., filter sterilized (0.2 μm Acrodisc® V45W500; Pall Galman, Ann Arbor, Mich.), and divided into two 1.5 ml duplicate aliquots. […] Each aliquot was vortexed briefly and immediately poured on Petri dishes containing the minimal glucose agar (MGA) which were allowed to solidify, then inverted and incubated at 37° C. in the dark for 48 hours, after which revertant colonies on control and test plates were counted.

[2] = test system: tumors induced by A. tumefaciens on potato discs; assay: Potato disc tumor induction assay (Agrobacterium tumefaciens-induced tumors); assay type: cell-based, Solanium tuberosum L.
Protocol: Tumor suppression is evaluated following the well-known Agrobacterium tumor induction assay procedure. The assay depends on the unique property of Agrobacterium tumefaciens of inserting a portion of its tumor-inducing (Ti) plasmid into the chromosomal DNA of a wounded plant, causing tumor-like growths on the plant, a condition commonly known to those skilled in the art as Crown Gall disease. Antitumor potential is measured by tumor suppression on aseptic potato discs treated with the plant extract. See A. B. Galsky, et al. J. Nat. Cancer Inst. 1981. 67:689-692, incorporated herein by reference, in its entirety. Antitumor activity detected by the Agrobacterium assay is correlated with suppression of tumors in animals; thus, plant extracts that suppress Agrobacterium-induced tumor formation have significant potential as human anticarcinogens.
Antitumor effects of extracts were tested using the Potato Tumor Induction method of McLaughlin's laboratories. 1 A. tumefaciens was cultured in Difco Yeast Extract Medium for a period of 48-72 hours at […] for use in the assay. […]

Structure (SMILES) | revertant colonies formed in the presence of 2-AA ([1]; 2-AA alone (DMSO + S9), no extract) | colonies formed with 2-AA relative to the control ([1]; 991.6 versus control 48.2) | % INHIBITION (tumor) ([2]; parallel study, dilution 1:10,000, Table 2) | tumor inhibition ([2]; positive inhibitory control of the Table 1 study, camptothecin stock 100 μg/ml)
Nc1ccc2cc3ccccc3cc2c1 [2-AA, 2-aminianthuracene] | 991.6 | approximately 20 fold |  | 
CC[C@@]1(O)C(=O)OCc2c1cc1n(c2=O)Cc2cc3ccccc3nc2-1 [camptothecin, Camptothecin] |  |  | 100% | 98.2%
